Data reported in patent US20080312292A1, “Antipruritics” (priority 2002, published 2008).

system: not given; assay: not given; settings: not given

Row | SMILES | melting point [°C]
1 | CCCCn1c(C)c(C)cc(NC(=O)c2ccc(F)cc2)c1=O | 129 to 130
2 | CSC(=O)N1CC(C)(C)CSC1=Nc1ccccc1C(C)C [Compound I-50] | 95 to 96
3 | CSC(=O)N1CC(C)(C)CSC1=Nc1cccc(C(C)C)c1 [Compound I-52] | 88 to 90
4 | CCSC(=S)N1CC(C)(C)CSC1=Nc1ccccc1C(C)C [Compound I-84] | 68 to 70
5 | CSC(=S)N1CC(C)(C)CSC1=Nc1ccccc1SC [Compound I-62] | 137 to 139
6 | COc1c(Oc2nc3ccccc3o2)c(C)c(C)n(Cc2ccccc2)c1=O | 197 to 198
7 | COc1ccccc1N=C1SCC(C)(C)CN1C(=S)SC [Compound I-60] | 128 to 130
8 | CCCCn1c(C)c(C)cc(NC(=O)Nc2ccccc2Br)c1=O | 154 to 155
9 | CSC(=S)N1CC2(CCOCC2)CSC1=Nc1ccccc1C(C)C [II-93] | 127 to 128
10 | CCn1c(C)c(C)cc(C(=O)NCc2ccccc2)c1=O | 117
11 | C=CCSC(=S)N1CC2(CCOCC2)CSC1=Nc1ccccc1C(C)C [II-92] | 73.5 to 75
12 | CCCCn1c(C)c(C)cc(NC(=O)OCc2ccccc2)c1=O | 65 to 66
13 | C=CCSC(=S)N1CC2(CCCCC2)CSC1=Nc1ccc(CC)cc1 [II-88] | 98 to 100
14 | Cc1ccc(Oc2nc3ccccc3o2)c(=S)n1C | 245 to 247
15 | CCc1ccccc1N=C1SCC(C)(C)CN1C(=S)SC [Compound I-56] | 107 to 109
16 | CCC(C)c1ccccc1N=C1SCC(C)(C)CN1C(=O)SC (stereo not drawn) [Compound I-51] | 53 to 56
17 | CC(C)OC(=O)CSC(=S)N1CC(C)(C)CSC1=Nc1ccccc1C(C)C [II-13] | 95 to 96

target: T1, human CB1R (Homo sapiens, UniProt P21554); assay: cell-based; settings: CHO cells expressing human CB1R, forskolin-stimulated cAMP synthesis; read-out: CB1 receptor IC50
T1 construct: expressed in transfected cells; host or cells: CHO cells
T1 sequence (P21554 whole entry): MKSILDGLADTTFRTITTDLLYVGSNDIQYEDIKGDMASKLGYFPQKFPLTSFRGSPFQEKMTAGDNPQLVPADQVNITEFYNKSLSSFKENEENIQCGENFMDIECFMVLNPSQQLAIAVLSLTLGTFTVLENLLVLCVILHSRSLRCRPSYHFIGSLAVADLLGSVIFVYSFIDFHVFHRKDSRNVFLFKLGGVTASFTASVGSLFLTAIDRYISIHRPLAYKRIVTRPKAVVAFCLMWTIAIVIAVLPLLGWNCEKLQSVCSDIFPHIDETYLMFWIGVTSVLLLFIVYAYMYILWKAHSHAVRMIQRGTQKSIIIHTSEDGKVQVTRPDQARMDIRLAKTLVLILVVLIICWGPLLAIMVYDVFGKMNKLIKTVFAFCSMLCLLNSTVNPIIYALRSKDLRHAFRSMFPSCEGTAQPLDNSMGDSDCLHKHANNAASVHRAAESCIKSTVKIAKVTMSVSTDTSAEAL

Row | SMILES | IC50 [nM]
18 | CCCCn1c2c(cc(C(=O)NCC(C)(C)C)c1=O)CCCCCC2 [Compound 10-041] | 3.5
19 | CCCCn1c2c(cc(C(=O)NC(C)(C)c3ccccc3)c1=O)COCC2 [Compound 13-044] | 1.8
20 | CCC(C)CNC(=O)c1cc(C)c(C)n(CC2CCCCC2)c1=O (stereo not drawn) [Compound 11-012] | 7.8
21 | CCCCn1c2c(cc(C(=O)Nc3ccccc3C(F)(F)F)c1=O)CCCCCC2 [Compound 10-103] | 6.3
22 | Cc1cc(C(=O)NC2CCCc3ccccc32)c(=O)n(CC2CCCCC2)c1C (stereo not drawn) [Compound 11-011] | 0.6
23 | CCCCn1c2c(cc(C(=O)NC(=O)c3c(F)cccc3F)c1=O)CCCCCC2 [Compound 10-045] | 1.2
24 | CCCCn1c(-c2ccccc2)c(C)cc(C(=O)NC(C)(C)c2ccccc2)c1=O [Compound 13-030] | 0.7
25 | Cc1cc(C(=O)NCC(C)(C)C)c(=O)n(CC2CCCCC2)c1C [Compound 11-013] | 7.5
26 | CCCCn1c2c(cc(C(=O)N[C@H](CC)c3ccccc3)c1=O)CCCCCC2 [Compound 10-058] | 2.4
27 | CCCCn1c2c(cc(C(=O)N[C@H](C)C3CCCCC3)c1=O)CCCCCC2 [Compound 10-050] | 2
28 | Cc1c(C)c(C)n(CC2CCCCC2)c(=O)c1C(=O)NCc1ccccc1 [Compound 3-109] | 2.7
29 | CCCCn1c2c(cc(C(=O)N[C@H](CF)c3ccccc3)c1=O)CCCCCC2 [Compound 10-089] | 9.4
30 | CCCCn1c2c(cc(C(=O)NC(C)(C)c3ccccc3)c1=O)[C@@H]1CC[C@H]2C1 [Compound 13-023] | 0.3
31 | CCCCn1c2c(cc(NC(=O)c3ccccc3Cl)c1=O)CCCCCC2 [Compound 13-006] | 1.6
32 | CCCCn1c2c(cc(C(=O)N[C@@H](CC)c3ccccc3)c1=O)CCCCCC2 [Compound 10-059] | 6.1
33 | CCCCn1c(C)c(C)cc(C(=O)NC(C)(C)c2ccccc2)c1=O [Compound 11-001] | 1.2
